Results reported in article PMC3565011 (Xenobiotica; the fate of foreign compounds in biological …, 2011).

Experiments:
CYP3A4 [1] = target: CYP3A4 (Homo sapiens, UniProt P08684); assay: Midazolam 1'-hydroxylation; assay type: in vitro ADME; settings: for % inhibition (10 µM) of CYP3A4, class / % inhibition (10 µM) of CYP3A4 / IC50: midazolam hydroxylation; for % inhibition (10 µM) of CYP3A4: average of triplicates ± S.D.; for IC50: read-out: IC50 CYP3A4
CYP3A4 [2] = settings: cited from earlier work
[3] = test system: tamoxifen 4-hydroxylation (4-OH TAM formation) by human liver microsomes; assay: in vitro; settings: female, pH 7.4
[4] = test system: tamoxifen N-demethylation (N-desmethyl TAM formation) by human liver microsomes; assay: in vitro; settings: female, pH 7.4
[5] = test system: tamoxifen α-hydroxylation (α-OH TAM formation) by human liver microsomes; assay: in vitro; settings: female, pH 7.4
CYP2D6 = CYP2D6 (Homo sapiens, UniProt P10635); assay: Dextromethorphan demethylation; assay type: in vitro ADME
Sequence of CYP2D6 (P10635 whole entry): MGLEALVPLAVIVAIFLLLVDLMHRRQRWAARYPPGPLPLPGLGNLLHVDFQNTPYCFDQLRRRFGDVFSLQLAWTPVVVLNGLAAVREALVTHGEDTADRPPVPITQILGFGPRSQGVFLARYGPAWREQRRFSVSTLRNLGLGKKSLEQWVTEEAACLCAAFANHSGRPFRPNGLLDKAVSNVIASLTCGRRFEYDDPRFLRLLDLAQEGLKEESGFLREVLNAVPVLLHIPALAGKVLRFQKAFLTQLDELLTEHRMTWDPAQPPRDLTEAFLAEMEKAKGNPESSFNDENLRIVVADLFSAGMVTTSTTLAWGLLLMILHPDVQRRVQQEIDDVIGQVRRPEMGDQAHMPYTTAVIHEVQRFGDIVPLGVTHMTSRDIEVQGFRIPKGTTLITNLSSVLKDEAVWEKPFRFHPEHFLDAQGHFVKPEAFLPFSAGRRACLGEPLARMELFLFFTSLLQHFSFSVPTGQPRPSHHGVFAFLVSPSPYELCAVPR

Sequence of CYP3A4 (Homo sapiens, UniProt P08684) (P08684 whole entry): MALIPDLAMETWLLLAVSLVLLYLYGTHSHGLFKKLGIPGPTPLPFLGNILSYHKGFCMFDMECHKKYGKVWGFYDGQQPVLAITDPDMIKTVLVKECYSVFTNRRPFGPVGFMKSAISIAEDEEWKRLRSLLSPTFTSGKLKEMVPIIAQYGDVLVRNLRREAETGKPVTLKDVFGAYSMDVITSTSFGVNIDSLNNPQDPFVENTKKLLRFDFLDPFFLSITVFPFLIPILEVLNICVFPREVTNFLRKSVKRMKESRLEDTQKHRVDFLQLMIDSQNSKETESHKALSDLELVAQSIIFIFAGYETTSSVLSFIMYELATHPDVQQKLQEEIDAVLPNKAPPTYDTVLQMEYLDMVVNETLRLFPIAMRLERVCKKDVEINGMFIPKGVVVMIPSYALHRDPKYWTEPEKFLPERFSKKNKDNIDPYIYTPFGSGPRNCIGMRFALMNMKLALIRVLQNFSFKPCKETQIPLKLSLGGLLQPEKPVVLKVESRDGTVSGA

## 1-α-hydroxycimigenol-3-O- α-L-arabinopyranoside [Compound 19]
CYP3A4 [1]
  % inhibition (10 µM) of CYP3A4, class: N/A (N/A, Not active = < 50% inhibition at 10 µM)

## 1-α-hydroxycimigenol-3-O-β-D-xylopyranoside [Compound 21]
CYP3A4 [1]
  % inhibition (10 µM) of CYP3A4, class: N/A (N/A, Not active = < 50% inhibition at 10 µM)

## 7-β-hydroxycimigenol aglycone [Compound 20]
CYP3A4 [1]
  % inhibition (10 µM) of CYP3A4: 64.9±1.1%

## 23-O-acetylshengmanol-3-β-D-xylopyranoside [Compound 12]
CYP3A4 [2]
  CYP3A4 inhibition (in words): weak inhibitor

## 25-O-acetyl-7-β-hydroxycimigenol-3-O-β-xylopyranoside [Compound 22]
CYP3A4 [1]
  % inhibition (10 µM) of CYP3A4: 61.8±0.2%

## 25-O-acetylcimigenol-3-O-α-arabinopyranoside [Compound 9]
CYP3A4 [1]
  % inhibition (10 µM) of CYP3A4, class: N/A (N/A, Not active = < 50% inhibition at 10 µM)

## 25-O-acetylcimigenol-3-O-β-xylopyranoside [Compound 8]
CYP3A4 [1]
  % inhibition (10 µM) of CYP3A4, class: N/A (N/A, Not active = < 50% inhibition at 10 µM)

## 25-anhydrocimigenol-3-O-β-arabinopyranoside [Compound 10]
CYP3A4 [1]
  % inhibition (10 µM) of CYP3A4, class: N/A (N/A, Not active = < 50% inhibition at 10 µM)

## 25-anhydrocimigenol-3-O-β-xylopyranoside [Compound 3]
CYP3A4 [1]
  % inhibition (10 µM) of CYP3A4, class: N/A (N/A, Not active = < 50% inhibition at 10 µM)

## COc1ccc2c(c1OC)CN(C)CCc1cc3c(cc1C(=O)C2)OCO3 [Allocryptopine, allocryptopine]
[3]
  inhibition at 20 min, 10 µM: 57.9 ± 4.3%
[4]
  inhibition at 20 min, 10 µM: 16.8 ± 2.8%
[5]
  inhibition at 20 min, 10 µM: < 10%

## CC(=O)O[C@@H]1C[C@@]23C[C@@]24CC[C@H](O[C@@H]2OC[C@@H](O)[C@H](O)[C@H]2O)C(C)(C)[C@@H]4CC[C@H]3[C@]2(C)C[C@@H]3O[C@@]4(C[C@@H](C)[C@@H]3[C@@]12C)OC[C@@]1(C)O[C@@H]41 [Compound 1, 23-epi-26-deoxyactein]
CYP2D6
  activity against CYP2D6 (in words): inactive
CYP3A4 [1]
  activity against CYP3A4 (in words): inactive

## CC(=O)O[C@@H]1C[C@@]23C[C@@]24CC[C@H](O[C@@H]2OC[C@@H](O)[C@H](O)[C@H]2O)C(C)(C)[C@@H]4CC[C@H]3[C@]2(C)C[C@@H]3O[C@]4(C[C@@H](C)[C@@H]3[C@@]12C)OC[C@@]1(C)O[C@@H]41 [Compound 4, 26-deoxyactein]
CYP2D6
  activity against CYP2D6 (in words): inactive
CYP3A4 [1]
  activity against CYP3A4 (in words): inactive
  % inhibition (10 µM) of CYP3A4, class: N/A (N/A, Not active = < 50% inhibition at 10 µM)

## CC(=O)O[C@@H]1C[C@@]23C[C@@]24CC[C@H](O[C@@H]2OC[C@@H](O)[C@H](O)[C@H]2O)C(C)(C)[C@@H]4CC[C@H]3[C@]2(C)C[C@@H]3O[C@]4(C[C@@H](C)[C@@H]3[C@@]12C)OC(=O)[C@]1(C)O[C@H]41 [Compound 5, Cimiracemoside P]
CYP3A4 [1]
  % inhibition (10 µM) of CYP3A4, class: N/A (N/A, Not active = < 50% inhibition at 10 µM)

## C=C(C)[C@@H]1O[C@@]23O[C@@H]1C[C@@H](C)[C@@H]2[C@@]1(C)[C@H](OC(C)=O)C[C@@]24C[C@@]25CC[C@H](O[C@@H]2OC[C@H](O)[C@H](O)[C@H]2O)C(C)(C)[C@@H]5CC[C@H]4[C@]1(C)[C@H]3O [Compound 6, Cimiracemoside J]
CYP3A4 [1]
  % inhibition (10 µM) of CYP3A4, class: N/A (N/A, Not active = < 50% inhibition at 10 µM)

## C=C(C)[C@@H]1O[C@@]23O[C@@H]1C[C@@H](C)[C@@H]2[C@@]1(C)[C@H](OC(C)=O)C[C@@]24C[C@@]25CC[C@H](O[C@@H]2OC[C@@H](O)[C@H](O)[C@H]2O)C(C)(C)[C@@H]5CC[C@H]4[C@]1(C)[C@H]3O [Compound 7, Cimiracemoside K]
CYP3A4 [1]
  % inhibition (10 µM) of CYP3A4: 85.2±0.3%
  IC50: 3.8 ± 0.5 µM

## CC(=O)O[C@@H]1C[C@@]23C[C@@]24CC[C@H](O[C@@H]2OC[C@@H](O)[C@H](O)[C@H]2O)C(C)(C)[C@@H]4CC[C@H]3[C@]2(C)C[C@@H]3O[C@]4(C[C@@H](C)[C@@H]3[C@@]12C)O[C@H](O)[C@@]1(C)O[C@@H]41 [Compound 11, Actein (R,S)]
CYP2D6
  activity against CYP2D6 (in words): inactive
CYP3A4 [1]
  activity against CYP3A4 (in words): inactive
  % inhibition (10 µM) of CYP3A4, class: N/A (N/A, Not active = < 50% inhibition at 10 µM)

## CC(=O)O[C@@H]1C[C@@]23C[C@@]24CC[C@H](O[C@@H]2OC[C@H](O)[C@H](O)[C@H]2O)C(C)(C)[C@@H]4CC[C@H]3[C@]2(C)C[C@@H]3O[C@]4(C[C@@H](C)[C@@H]3[C@@]12C)OC[C@]1(C)O[C@H]41 [Compound 13, Cimiracemoside N]
CYP3A4 [1]
  % inhibition (10 µM) of CYP3A4, class: N/A (N/A, Not active = < 50% inhibition at 10 µM)

## CC(=O)O[C@H]1[C@H](O[C@H]2CC[C@]34C[C@]35C[C@@H](OC(C)=O)[C@]3(C)[C@H]6[C@H](C)C[C@@]7(O[C@H]6C[C@@]3(C)[C@@H]5CC[C@H]4C2(C)C)O[C@H](O)[C@@]2(C)O[C@@H]72)OC[C@@H](O)[C@@H]1O [Compound 14, 2’-O-acetyl-Actein]
CYP3A4 [1]
  % inhibition (10 µM) of CYP3A4, class: N/A (N/A, Not active = < 50% inhibition at 10 µM)

## CC(=O)O[C@@H]1CO[C@@H](O[C@H]2CC[C@]34C[C@]35C[C@@H](OC(C)=O)[C@]3(C)[C@H]6[C@H](C)C[C@]7(OC(O)[C@]8(C)O[C@H]78)O[C@H]6C[C@@]3(C)[C@@H]5CC[C@H]4C2(C)C)[C@H](O)[C@H]1O (stereo partly drawn) [Compound 15, Cimiracemoside O]
CYP3A4 [1]
  % inhibition (10 µM) of CYP3A4: 74.8±0.1%
  IC50: 5.1 ± 0.4 µM

## CC(=O)O[C@H]1CO[C@@H](O[C@H]2CC[C@]34C[C@]35CC[C@]3(C)[C@@H]([C@H](C)C[C@@H](OC(C)=O)[C@@H]6OC6(C)C)C(=O)[C@H](O)[C@@]3(C)[C@@H]5CC[C@H]4C2(C)C)[C@H](O)[C@H]1O [Compound 16, Cimiracemoside L]
CYP3A4 [1]
  % inhibition (10 µM) of CYP3A4: 94.2±0.3%
  IC50: 2.4 ± 0.2 µM

## C[C@H](CC(=O)[C@@H]1OC1(C)C)[C@H]1C(=O)C[C@@]2(C)C3=CC[C@H]4C(C)(C)[C@@H](O[C@@H]5OC[C@@H](O)[C@H](O)[C@H]5O)CC[C@@]45C[C@@]35[C@@H](O)C[C@]12C [Compound 17, Cimicifugoside H-1]
CYP3A4 [1]
  % inhibition (10 µM) of CYP3A4, class: N/A (N/A, Not active = < 50% inhibition at 10 µM)

## CN1CCc2cc3c(cc2C(=O)Cc2ccc4c(c2C1)OCO4)OCO3 [Protopine, protopine]
CYP2D6
  Ki: 0.078 µM
